The values below come from ChEMBL document CHEMBL1201862, “PubChem BioAssay data set” (2004).

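Dose response: 5 concentrations. Exposure: 48 h. Format: 96-well plates. Endpoint: linear interpolation; highest concentration if not reached. Abbreviation: GI50, concentration required for 50% inhibition of growth.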 Active and inactive are the calls of the source. Cut-off read from the data, not from the text of the source: active = GI50 up to about 1.1 µM and inactive = higher.

Experiment in all cases: NCI tumour cell line growth inhibition, 48 h
Experiment [1] deals with NCI-H460.
Experiment [2] relates to MCF7.
Experiment [3] relates to A498.
Experiment [4] deals with BT-549.
In experiment [5] the test system is DU-145.
The test system of experiment [6] is UO-31.
Experiment [7] deals with SW-620.
Experiment [8] has as its system HCT-15.
Experiment [9] concerns SF-268.
Experiment [10] has as its system A549.
Experiment [11] deals with CAKI-1.
Experiment [12] has as its system HOP-62.
Experiment [13] deals with Malme-3M.
Experiment [14] concerns UACC-62.
The test system of experiment [15] is UACC-257.
For experiment [16], the system named is SK-OV-3.
Experiment [17] relates to OVCAR-3.
The test system of experiment [18] is MDA-N.
In experiment [19] the test system is HL-60.

With `CC(=O)c1ccc(O)c(CN(C2CCCCC2)C2CCCCC2)c1O`, the GI50 in [1] is > 100 µM (inactive); in experiment [2], > 100 µM (inactive); in [3] it was > 100 µM (inactive); in experiment [4], > 100 µM (inactive); in experiment [5] it was > 100 µM (inactive); in experiment [6], 83.2 µM (inactive). In addition, the GI50 in [7] was 81.1 µM (inactive); in experiment [8], over 100 µM; in experiment [9], > 100 µM (inactive); in experiment [10], > 100 µM (inactive); in experiment [11], > 100 µM (inactive); in experiment [12], > 100 µM (inactive). The GI50 in experiment [13], in experiment [14], in experiment [15], in experiment [16], in experiment [17] and in experiment [18] was > 100 µM (inactive) throughout.
As for `O=C1CSC2(CCN(CCCN3c4ccccc4Sc4ccc(Cl)cc43)CC2)N1`, the GI50 in experiment [1] is 4.08 µM (inactive); in experiment [2], 5.9 µM (inactive); in [3], 15.5 µM (inactive); in experiment [4] it was 12.1 µM (inactive); in experiment [5], 11.9 µM (inactive); in [6] it was 6.75 µM (inactive). In addition, the GI50 was 11.2 µM (inactive) in [7]; 6.78 µM in experiment [8]; 8.34 µM (inactive) in [9]; 10.1 µM (inactive) in experiment [10]; 12.5 µM (inactive) in [11]; 12.9 µM (inactive) in [12]. The GI50 in experiment [13] was 12 µM (inactive); in experiment [14], 11.5 µM (inactive); in experiment [15], 9.35 µM (inactive); in [16], 9.77 µM (inactive); in experiment [17], 10.4 µM (inactive); in [18], 11.5 µM (inactive).
Consider `C/C(=N\N=C(\N)SB(F)F)c1ccc2ccccc2c1`, for which the GI50 is > 100 µM (inactive) in experiment [1]; 87.7 µM (inactive) in experiment [2]; > 100 µM (inactive) in experiment [3]; > 100 µM (inactive) in experiment [4]; > 100 µM (inactive) in [5]; > 100 µM (inactive) in experiment [6]. Also, the GI50 in experiment [7] was 71.8 µM (inactive); in experiment [8] it was 95.5 µM; in experiment [9], 86.5 µM (inactive); in [10], > 100 µM (inactive); in experiment [11], > 100 µM (inactive); in experiment [13], > 100 µM (inactive). The GI50 in experiment [14], in experiment [15], in [16] and in experiment [18] was > 100 µM (inactive) each time.
For the compound `CCOC(=O)c1c(N2CCOCC2)[nH]c(=O)c(C(c2ccc(OC)cc2)c2c(O)c(C(=O)OCC)c(N3CCOCC3)[nH]c2=O)c1O`, the GI50 in experiment [1], in experiment [2], in experiment [3], in [4], in experiment [5] and in experiment [6] was > 100 µM (inactive) throughout. The GI50 in experiment [7] was > 100 µM (inactive); in experiment [8], over 100 µM; in experiment [9], > 100 µM (inactive); in [10], > 100 µM (inactive); in experiment [11], > 100 µM (inactive); in experiment [12] it was > 100 µM (inactive). Also, the GI50 in [13], in [14], in [15], in experiment [16], in [17] and in experiment [18] was > 100 µM (inactive) each time.
Consider `Cc1nc2ccccc2n1COC(Cn1ccnc1)c1ccc(Cl)cc1Cl` (stereo not drawn), for which the GI50 is 15.3 µM (inactive) in experiment [1]; 30.5 µM (inactive) in [19]; 41.7 µM (inactive) in experiment [2]; > 100 µM (inactive) in experiment [3]; 33 µM (inactive) in experiment [4]; > 100 µM (inactive) in experiment [5]. The GI50 in experiment [6] was 25.6 µM (inactive); in experiment [7] it was > 100 µM (inactive); in experiment [8] it was 34.8 µM; in [9], 78.3 µM (inactive); in experiment [10] it was 72.4 µM (inactive); in experiment [11], 17.4 µM (inactive). Also, the GI50 in [12] is 57.3 µM (inactive); in experiment [13] it was > 100 µM (inactive); in [14] it was 56.5 µM (inactive); in experiment [15] it was 31 µM (inactive); in [17] it was 41.4 µM (inactive); in experiment [18], 48.8 µM (inactive).
Take `C=CCC(C(=O)Nc1cccc2nc[nH]c12)C(=O)OCC` (stereo not drawn): the GI50 in experiment [1] was > 100 µM (inactive); in experiment [19] it was 33.2 µM (inactive); in experiment [2] it was > 100 µM (inactive); in [3] it was > 100 µM (inactive); in experiment [4], > 100 µM (inactive); in experiment [5] it was > 100 µM (inactive). Besides, the GI50 in experiment [6] is > 100 µM (inactive); in [7] it was > 100 µM (inactive); in experiment [8], over 100 µM; in experiment [9] it was > 100 µM (inactive); in experiment [10] it was > 100 µM (inactive); in experiment [12], > 100 µM (inactive). Moreover, the GI50 in [14] was 85.3 µM (inactive); in [15], > 100 µM (inactive); in experiment [16], > 100 µM (inactive); in experiment [17] it was > 100 µM (inactive); in [18] it was > 100 µM (inactive).
With `Nc1ccccc1C(=O)CC1OC(=O)c2ccccc21` (stereo not drawn), the GI50 in [1] is 61.2 µM (inactive); in [19], > 100 µM (inactive); in experiment [2], > 100 µM (inactive); in experiment [3], 43.2 µM (inactive); in experiment [4], 35 µM (inactive); in experiment [5], 51.4 µM (inactive). The GI50 was > 100 µM (inactive) in experiment [6]; > 100 µM (inactive) in experiment [7]; 86.5 µM in experiment [8]; 69.3 µM (inactive) in experiment [9]; 65.6 µM (inactive) in experiment [10]; 91 µM (inactive) in experiment [12]. The GI50 in experiment [13] was 50.5 µM (inactive); in experiment [14], 64.9 µM (inactive); in experiment [15], > 100 µM (inactive); in [16] it was > 100 µM (inactive); in experiment [17] it was 78.3 µM (inactive); in [18] it was 78.7 µM (inactive).
On to `Nc1nccc(NCC2(CO)CCC2)n1`, for which the GI50 is > 100 µM (inactive) in experiment [1]; > 100 µM (inactive) in experiment [19]; 68.9 µM (inactive) in [2]; > 100 µM (inactive) in [3]; > 100 µM (inactive) in experiment [4]; > 100 µM (inactive) in experiment [5]. Moreover, the GI50 is > 100 µM (inactive) in experiment [6]; > 100 µM (inactive) in [7]; over 100 µM in experiment [8]; > 100 µM (inactive) in experiment [9]; > 100 µM (inactive) in experiment [10]; 63.4 µM (inactive) in experiment [11]. The GI50 in [12], in [13], in experiment [14], in experiment [15], in experiment [17] and in experiment [18] was > 100 µM (inactive) throughout.
Take `Oc1[nH]c(Nc2ccc(Cl)c(C(F)(F)F)c2)nc2ncnc1-2`: the GI50 was 51.8 µM (inactive) in experiment [1]; 27.2 µM (inactive) in [2]; 24 µM (inactive) in experiment [3]; 36.6 µM (inactive) in [4]; 36.1 µM (inactive) in [5]; > 100 µM (inactive) in [6]. For the same compound, the GI50 in experiment [7] is 70 µM (inactive); in experiment [8] it was over 100 µM; in experiment [9], 36.2 µM (inactive); in [10], > 100 µM (inactive); in [11], > 100 µM (inactive); in experiment [12], > 100 µM (inactive). Further, the GI50 is 30.3 µM (inactive) in experiment [13]; 32.6 µM (inactive) in experiment [14]; 59.2 µM (inactive) in [15]; > 100 µM (inactive) in experiment [16]; 36.6 µM (inactive) in experiment [17]; 25.6 µM (inactive) in [18].
With `O=C(/C=C/c1ccc(/C=C/C(=O)c2ccc(O)cc2)cc1)c1ccc(O)cc1`, the GI50 in experiment [1], in experiment [19], in experiment [2], in experiment [3], in [4] and in [5] was > 100 µM (inactive) in each case. For the same compound, the GI50 was > 100 µM (inactive) in experiment [6]; > 100 µM (inactive) in experiment [7]; over 100 µM in [8]; > 100 µM (inactive) in experiment [9]; > 100 µM (inactive) in experiment [10]; > 100 µM (inactive) in experiment [11]. Further, the GI50 in experiment [12], in experiment [14], in experiment [15], in [17] and in experiment [18] was > 100 µM (inactive) each time.
For `CNc1c2c(c3nc4ccccc4c4c3c1N=C4)NCCC2=O` [PLAKINIDINE A], the GI50 was 3.15 µM (inactive) in experiment [1]; 2.66 µM (inactive) in [2]; 2.67 µM (inactive) in [3]; 7.74 µM (inactive) in experiment [4]; > 10 µM (inactive) in experiment [5]; 3.56 µM (inactive) in [6]. In addition, the GI50 in experiment [7] was 2.44 µM (inactive); in experiment [8], 6.4 µM; in [9], 3.33 µM (inactive); in [10] it was 3.52 µM (inactive); in experiment [11], 4.69 µM (inactive); in experiment [12], 8.59 µM (inactive). The GI50 in experiment [13] was 4.65 µM (inactive); in experiment [15], > 10 µM (inactive); in experiment [16] it was 8.04 µM (inactive); in [17], 8.57 µM (inactive); in experiment [18] it was 7.35 µM (inactive).
